Assay results taken from PubChem BioAssay (NCI).
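Tested at 5 concentrations; 48 h exposure; 96-well plates; endpoints linearly interpolated, else capped at highest concentration. TGI denotes the concentration required for complete inhibition of growth.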

Legend:
Assay in all cases: DTP human tumour cell line panel, 48 h
CCRF-CEM leukemia = test system: CCRF-CEM leukemia
HCT-116 colon = test system: HCT-116 colon
HOP-62 NSCLC = test system: HOP-62 NSCLC
HS 578T breast = test system: HS 578T breast
K-562 leukemia = test system: K-562 leukemia
KM12 colon = test system: KM12 colon
MOLT-4 leukemia = test system: MOLT-4 leukemia
SK-MEL-5 melanoma = test system: SK-MEL-5 melanoma
SNB-75 CNS = test system: SNB-75 CNS
UACC-62 melanoma = test system: UACC-62 melanoma

Row | SMILES | TGI (CCRF-CEM leukemia) [µM] | TGI (HCT-116 colon) [µM] | TGI (HOP-62 NSCLC) [µM] | TGI (HS 578T breast) [µM] | TGI (K-562 leukemia) [µM] | TGI (KM12 colon) [µM] | TGI (MOLT-4 leukemia) [µM] | TGI (SK-MEL-5 melanoma) [µM] | TGI (SNB-75 CNS) [µM] | TGI (UACC-62 melanoma) [µM]
1 | COc1cccc2c1OC1(C=C2)Oc2ccccc2C(=O)N1C (configuration not stated) | 46.2 | > 100 | > 100 | 81.8 | > 100 | > 100 | 81.4 | > 100 | 74.1 | > 100
2 | N#CC12C(=O)N=C(N)C1(C#N)C(c1ccco1)NC1=C2CCCC1 (configuration not stated) | > 100 | > 100 | > 100 | > 100 |  | > 100 | > 100 | > 100 |  | > 100
3 | O=S(=O)(CCn1c(Sc2ccccc2)c(Sc2ccccc2)c2ccccc21)c1ccccc1 | > 100 | > 100 | > 100 | > 100 | > 100 | > 100 | > 100 | > 100 | > 100 | > 100
4 | COc1cc(NS(C)(=O)=O)ccc1Nc1cc(C)[nH]c2ccc3nccc3c12 |  | > 100 | > 100 | > 100 | > 100 | > 100 |  | > 100 |  | > 100
5 | O=C(/C=C/c1ccc2c(c1)OCO2)CC(=O)C(=O)c1c[nH]c2ccccc12 | 69.4 | > 100 | > 100 | 68.1 | 84.6 | > 100 | > 100 | > 100 | 96.6 | > 100
6 | O=C(O)/C=C(/C(=O)O)C12CCN3CC4=CCOC5CC(=O)NC1C5C4CC32 (configuration not stated) | > 100 | > 100 | > 100 | > 100 | > 100 | > 100 | > 100 | > 100 | > 100 | > 100
7 | COP(=O)(/C=C/c1cc(C(=O)OCc2ccccc2)n(S(=O)(=O)c2ccccc2)c1)OC | > 100 | > 100 | > 100 | > 100 | > 100 | > 100 | > 100 | > 100 | > 100 | > 100
8 | O=C1c2ccccc2-c2c1c(-c1ccc(F)cc1)nc1ccc3ccccc3c21 | > 100 | > 100 | > 100 | > 100 | > 100 | > 100 | > 100 |  | > 100 | > 100
9 | CCOC(=O)C1=C(C)C2C=C(c3cccs3)CC(c3ccc(Cl)cc3)=C2OC1=O (configuration not stated) | 60.1 | 69.2 | > 100 | > 100 | 34.4 | 39.8 | > 100 | > 100 | > 100 | > 100
10 | C=CCSc1nnc2cc(CN3CCCC3)c(-c3ccc(Cl)cc3)nn12 | > 100 | 28.5 | 45.4 | > 100 | > 100 | 64.7 | > 100 | 31.1 | 39.2 | 27.7
11 | CC1(C)CCCC2OC2CCC(C)(C)C1=O (configuration not stated) | > 100 | > 100 | > 100 | > 100 | > 100 | > 100 | > 100 | > 100 | > 100 | > 100
12 | CCC1(CC)C(=O)NN(C(=O)c2ccccc2)C1=O | > 100 | > 100 | > 100 | > 100 | > 100 | > 100 | > 100 | > 100 | > 100 | > 100
13 | O=c1c2sc(=S)n(-c3ccc(F)cc3)c2ncn1/N=C/c1ccc(F)cc1F | > 100 | > 100 | 30.7 | 76.3 | > 100 | > 100 |  | > 100 | 32.8 | > 100
14 | [O-][n+]1ccccc1Sc1nc(Sc2cccc[n+]2[O-])nc(Sc2cccc[n+]2[O-])n1 | > 100 | 2.53 | 9.17 | 10.9 |  | 3.88 |  | 3.07 | 18.6 | 3.67
15 | N=C(N)SCc1ccc2c(c1)Sc1ccccc1O2 | > 54.1 | 22.3 | 34.1 | 16.5 | > 100 | 16.4 | > 93.3 | 3.11 | 18.2 | 19.7
16 | Cc1cc(N(CCOS(C)(=O)=O)CCOS(C)(=O)=O)ccc1C=O | > 100 | > 100 |  | 94 | > 100 | 54.6 | 14.8 | > 100 |  | 15.7
17 | CCCCC(C(=O)NCCNC(=O)CCC(=O)N(C)O)C(=O)NCCNC(=O)CCC(=O)N(C)O | > 100 | > 100 | > 100 |  | > 100 | > 100 | > 100 | > 100 | > 100 | > 100
18 | COc1cccc2c(=O)oc(-c3ccc(C(C)(C)C)cc3)nc12 | > 100 | > 100 | > 100 | > 100 | > 100 | > 100 | 48.2 | 87.4 | > 100 | > 100
19 | CCN(CC)/C(SCc1ccccc1)=C(\C(Cl)=C(Cl)Cl)[N+](=O)[O-] | 52.2 | 28.2 | 45.6 |  | > 100 | 36.5 | 44.5 | 30.5 |  | 18.1
20 | CN(C)c1ccc(C(=N/N=C2\C(=O)Nc3ccccc32)c2ccc(N(C)C)cc2)cc1 | 13.2 | 12.3 | 41.9 | > 21.9 | 39.6 | 33.1 | 52.7 | 13.9 | 1.21 | 33.5
21 | CCCCCCOc1ccc(C(=O)NOC)cc1 | > 100 | > 100 | > 100 | > 100 | > 100 | > 100 | > 100 | > 100 | > 100 | > 100
22 | Cc1cn(C2CC(O)C(CO)O2)c(=O)[nH]c1=O (configuration not stated) | 2390 | > 4240 | 4630 | > 5000 | > 5000 | > 5000 | 4090 | > 5000 | > 4500 | 3680
23 | COC(=O)C1CCC(=O)N1C(c1ccc(OC)cc1)c1ccc2c(c1)OCO2 (configuration not stated) | > 100 | > 100 | > 100 | > 100 | > 100 | > 100 | > 100 | 81.7 | 78.9 | > 100

Row | SMILES | TGI (CCRF-CEM leukemia) [µM] | TGI (HCT-116 colon) [µM] | TGI (HOP-62 NSCLC) [µM] | TGI (HS 578T breast) [µM] | TGI (K-562 leukemia) [µM] | TGI (KM12 colon) [µM] | TGI (MOLT-4 leukemia) [µM] | TGI (SK-MEL-5 melanoma) [µM] | TGI (SNB-75 CNS) [µM] | TGI (UACC-62 melanoma) [µM]
24 | O=[N+]([O-])C(/C=C(\Cl)n1nnc2ccccc21)=C(/Cl)n1nnc2ccccc21 | > 100 | > 100 | > 100 | > 100 | > 100 | > 100 | > 100 | > 100 |  | > 100
25 | O=C(O)CCC(=O)OC1N=C(c2ccccc2Cl)c2cc([N+](=O)[O-])ccc2NC1=O (configuration not stated) | > 100 | 65.6 | > 100 | > 100 |  | > 100 |  |  | > 100 | > 100
26 | Cc1cc(C(=O)CCCCOc2ccc(C3=NCCO3)cc2)c(C)n1C | 46.6 | > 100 | > 100 | > 100 | > 100 | > 100 | 34.4 | 34.9 | > 100 | 
27 | CC(=N/N=C/c1ccccn1)/C(C)=N/N=C(C)/C(C)=N/N=C(C)/C(C)=N/N=C(C)/C(C)=N\N=C\c1ccccn1 |  | > 100 | > 100 | > 100 | > 100 | > 100 |  | > 100 | > 100 | 
28 | CC1CCC(C(=O)O)(C(Br)C(=O)O)CC1 (configuration not stated) | > 100 | > 100 | > 100 |  | > 100 | > 100 | > 100 | > 100 | > 100 | > 100
29 | Oc1ccc([I+]c2ccccc2)cc1O | 60.4 | > 100 | > 100 | > 100 | 54.3 | 70.7 | 85.3 | > 100 | > 100 | 
30 | CN(C)c1ccc(S(=O)Nc2ccccc2)cc1 (configuration not stated) | > 100 | > 100 | > 100 | > 100 | > 100 | 57.1 | > 100 | 50.7 |  | 81.6
31 | CCOC(=O)c1cc2nc3ccccc3c(=O)n2c2ccccc12 | > 10 | > 10 | > 10 | > 10 | > 10 | > 10 |  | > 10 | > 10 | > 10
32 | Cc1ccc(S(=O)(=O)N/N=C/C2(c3ccccc3)c3ccccc3-c3ccccc32)cc1 | > 100 | 20.3 | 32.1 | 39.3 | > 100 | 20.2 | > 100 | 23.9 |  | 27.3
33 | O=[N+]([O-])c1ccc(Oc2c(Cl)cc(S(=O)(=O)/N=C(\NO)Nc3ccc(Cl)cc3)cc2Cl)cc1 | 24.5 | 22.6 | 32.7 | 36.7 | 35.9 | 29 | 21.7 | 22.2 |  | 24.1
34 | O=c1[nH]c(Nc2nc3ccccc3[nH]2)nc(O)c1-c1ccccc1 | > 100 | > 100 | > 100 | > 100 | > 100 |  |  | > 100 | > 100 | > 100
35 | CC1=NN(c2cccc(Cl)c2)C2(C1=C/C=C/c1ccccc1)C(Cl)C(=O)N2c1nc2ccccc2s1 (configuration not stated) | > 59.3 | > 86.1 | > 100 | 49 | 31 | > 67.5 | 12.1 | > 58.7 |  | > 100
36 | Cc1nc(N)c(N2CCN([N+](=O)[O-])CC2)c(=O)[nH]1 | > 100 | > 100 | > 100 | > 100 | > 100 | > 100 | > 100 |  | > 100 | 
37 | CSc1nsc(-c2ccccc2)[s+]1 | > 100 | > 100 | > 100 |  | > 100 | > 100 | > 100 | > 100 | > 100 | > 100
38 | NS(=O)(=O)c1cc2c(cc1Cl)NC(CCC(=O)O)=NS2(=O)=O |  | > 100 | > 100 | > 100 | > 100 | > 100 |  | > 100 | > 100 | > 100
39 | Cc1cccc2c1CC1(C2)Cc2c(C)cccc2C1=O (configuration not stated) | 56.9 | 35.7 | 54.5 | > 100 | 70.3 | 51.5 | 30.2 | 33.7 | 70.7 | 
40 | CN(C)C1(N(C)C)Oc2c(c(=O)n(C)c(=O)n2C)C(c2ccc(Br)cc2)C1(F)F (configuration not stated) | > 100 | > 100 | > 100 |  |  | > 100 | > 100 | > 100 | > 100 | > 100
41 | O=C(Nc1nccs1)c1c(O)nc2sccn2c1=O | > 10 | > 10 | > 10 | > 10 |  | > 10 | > 10 | > 10 | > 10 | > 10
42 | CCCSCC(P(=O)(O)O)P(=O)(O)O | > 100 | > 100 | > 100 |  | > 100 | > 100 | > 100 | > 100 | > 100 | > 100
43 | COc1ccc(-c2nc(SCC(=O)N/N=C/c3ccc(N(C)C)cc3)[nH]c2-c2ccc(OC)cc2)cc1 | > 100 | > 100 | > 100 |  | > 100 | > 100 |  | > 100 | > 100 | > 100
44 | CCOP(=O)(OCC)C(c1ccc(F)cc1)N(C(=O)NC(F)(F)F)c1ccc(OC)cc1 (configuration not stated) | > 100 | > 100 | > 100 | > 100 | > 100 | > 100 | > 100 | > 100 | > 100 | 
45 | COc1ccc(C2=N/C(=C\c3ccccc3)C(=O)O2)cc1 | > 100 |  | > 100 | > 100 | > 100 | > 100 | 52.6 |  | > 100 | 
46 | CCCC(=O)OC1CC(n2cc(F)c(=O)[nH]c2=O)OC1COP(=O)(OCC(Cl)(Cl)Cl)OCC(Cl)(Cl)Cl (configuration not stated) | 94.4 | > 51.1 | > 100 | 76.3 |  | > 100 | > 62.1 | > 100 | 76.6 | > 100
